Laboratory results taken from ChEMBL document CHEMBL4480435, “The impact of binding site waters on the activity/selectivity trade-off of Janus kinase 2 (JAK2) inhibitors” (Bioorg Med Chem, 2019).

What was measured:
[1] = target: T1, Tyrosine-protein kinase JAK1 (Homo sapiens, UniProt P23458); assay: Inhibition of JAK1 (unknown origin) after 1 hr by FRET-based Z'-Lyte assay
[2] = target: T2, Tyrosine-protein kinase JAK2 (Homo sapiens, UniProt O60674); assay: Inhibition of JAK2 (unknown origin) after 1 hr FRET-based Z'-Lyte assay
Homo sapiens = species on record: Homo sapiens; assay: Selectivity ratio of IC50 for JAK1 (unknown origin) to IC50 for JAK2 (unknown origin)
[3] = target: T1, Tyrosine-protein kinase JAK1; assay: Inhibition of JAK1 (unknown origin) at 20 uM after 1 hr by FRET-based Z'-Lyte assay
[4] = target: T1, Tyrosine-protein kinase JAK1
Description: Inhibition of human recombinant JAK1 (852 to 1142 residues) by Z-Lyte assay

[5] = target: T2, Tyrosine-protein kinase JAK2
Description: Inhibition of human recombinant JAK2 (808 to 1132 residues) by Z-Lyte assay

[6] = target: T1, Tyrosine-protein kinase JAK1; assay: Inhibition of JAK1 (unknown origin) at 10 uM after 1 hr by FRET-based Z'-Lyte assay

T1 sequence (P23458 whole entry): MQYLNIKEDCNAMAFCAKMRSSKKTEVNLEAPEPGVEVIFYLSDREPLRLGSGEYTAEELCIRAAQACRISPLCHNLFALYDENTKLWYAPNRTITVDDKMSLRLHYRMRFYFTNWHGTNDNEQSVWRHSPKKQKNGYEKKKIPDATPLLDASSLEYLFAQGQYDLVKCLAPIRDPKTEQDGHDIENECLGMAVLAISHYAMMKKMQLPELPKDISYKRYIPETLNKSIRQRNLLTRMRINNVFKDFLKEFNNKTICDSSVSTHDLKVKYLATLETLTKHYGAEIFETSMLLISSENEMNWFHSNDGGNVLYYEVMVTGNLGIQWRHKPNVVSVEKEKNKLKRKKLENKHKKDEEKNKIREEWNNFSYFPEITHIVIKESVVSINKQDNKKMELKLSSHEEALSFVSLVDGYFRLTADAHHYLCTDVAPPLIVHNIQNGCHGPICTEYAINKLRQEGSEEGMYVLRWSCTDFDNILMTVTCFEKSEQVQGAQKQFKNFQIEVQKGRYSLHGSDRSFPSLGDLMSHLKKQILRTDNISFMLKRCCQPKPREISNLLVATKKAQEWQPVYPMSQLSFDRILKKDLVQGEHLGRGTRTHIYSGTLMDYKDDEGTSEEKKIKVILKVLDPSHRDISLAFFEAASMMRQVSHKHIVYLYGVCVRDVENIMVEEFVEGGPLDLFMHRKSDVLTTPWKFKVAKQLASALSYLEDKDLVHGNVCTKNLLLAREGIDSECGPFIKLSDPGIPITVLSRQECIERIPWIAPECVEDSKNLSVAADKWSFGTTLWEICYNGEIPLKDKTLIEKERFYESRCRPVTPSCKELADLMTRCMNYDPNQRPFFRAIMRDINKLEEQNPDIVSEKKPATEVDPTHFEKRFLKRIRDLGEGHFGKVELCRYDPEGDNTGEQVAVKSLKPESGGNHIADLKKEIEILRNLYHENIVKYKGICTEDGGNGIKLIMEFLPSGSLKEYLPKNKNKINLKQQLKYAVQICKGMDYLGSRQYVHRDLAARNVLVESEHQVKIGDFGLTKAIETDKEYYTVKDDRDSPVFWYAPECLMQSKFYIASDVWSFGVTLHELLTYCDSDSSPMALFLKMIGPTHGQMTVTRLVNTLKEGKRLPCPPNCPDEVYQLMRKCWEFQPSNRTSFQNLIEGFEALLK
T2 sequence (O60674 whole entry): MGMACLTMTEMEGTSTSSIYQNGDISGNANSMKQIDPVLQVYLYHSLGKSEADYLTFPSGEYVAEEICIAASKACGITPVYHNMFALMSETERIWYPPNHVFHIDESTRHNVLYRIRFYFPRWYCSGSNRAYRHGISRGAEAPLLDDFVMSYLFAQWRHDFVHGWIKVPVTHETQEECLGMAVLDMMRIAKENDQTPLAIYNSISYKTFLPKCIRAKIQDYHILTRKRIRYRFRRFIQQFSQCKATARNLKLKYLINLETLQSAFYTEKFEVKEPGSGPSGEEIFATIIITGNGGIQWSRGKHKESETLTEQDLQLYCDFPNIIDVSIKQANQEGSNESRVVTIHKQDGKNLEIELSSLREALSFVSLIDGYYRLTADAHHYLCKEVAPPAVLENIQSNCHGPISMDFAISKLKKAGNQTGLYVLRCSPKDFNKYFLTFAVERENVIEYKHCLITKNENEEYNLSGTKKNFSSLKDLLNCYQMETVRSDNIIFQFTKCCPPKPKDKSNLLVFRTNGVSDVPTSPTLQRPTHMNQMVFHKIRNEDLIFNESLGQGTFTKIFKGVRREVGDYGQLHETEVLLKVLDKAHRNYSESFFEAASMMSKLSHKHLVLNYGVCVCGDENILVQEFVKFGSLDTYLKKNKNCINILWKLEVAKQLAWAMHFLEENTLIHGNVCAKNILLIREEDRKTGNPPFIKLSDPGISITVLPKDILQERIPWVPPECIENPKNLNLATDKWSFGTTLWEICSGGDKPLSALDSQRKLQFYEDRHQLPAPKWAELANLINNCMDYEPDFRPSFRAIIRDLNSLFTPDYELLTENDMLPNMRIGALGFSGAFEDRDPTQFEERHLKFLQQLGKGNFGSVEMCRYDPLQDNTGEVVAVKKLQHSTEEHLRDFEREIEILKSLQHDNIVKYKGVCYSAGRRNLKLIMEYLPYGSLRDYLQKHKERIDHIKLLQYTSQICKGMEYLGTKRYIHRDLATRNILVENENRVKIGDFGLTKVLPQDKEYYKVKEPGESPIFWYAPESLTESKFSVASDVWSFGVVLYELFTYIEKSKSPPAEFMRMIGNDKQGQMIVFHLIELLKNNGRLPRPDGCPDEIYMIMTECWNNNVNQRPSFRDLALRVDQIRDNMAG

Compound	IC50 [1] [µM]	IC50 [2] [nM]	Ratio IC50 (Homo sapiens)	inhibition [3] [%]	IC50 [4] [nM]	IC50 [5] [nM]	inhibition [6] [%]
Nc1n[nH]c2ccc(NC(=O)c3cccc(Cl)c3)cc12	0.943	583	1.63	–	–	–	–
Nc1n[nH]c2ccc(C(=O)Nc3ccccc3Cl)cc12	2.27	126	18	–	–	–	–
O=C(Nc1ccc2[nH]ncc2c1)c1cccc(Cn2cnnn2)c1	–	–	–	20	–	–	–
O=C(Nc1ccc2[nH]ncc2c1)c1ccccc1Cl	8.53	453	18.8	–	–	–	–
CCNc1ccccc1C(=O)Nc1ccc2[nH]ncc2c1	24.1	3960	6	–	–	–	–
O=C(Nc1ccc2[nH]ncc2c1)c1ccccc1-n1cnnn1	33	2380	14	–	–	–	–
O=C(Nc1ccc2[nH]ncc2c1)c1c(Cl)cccc1-n1cnnn1	11.5	820	14	–	–	–	–
CNS(=O)(=O)C[C@H]1CC[C@H](N(C)c2ncnc3[nH]ccc23)CC1 [OCLACITINIB]	–	–	–	–	10	18	–
Nc1n[nH]c2ccc(C(=O)Nc3c(Cl)cccc3Cl)cc12	0.46	28	16	–	–	–	–
c1ccc(-n2cnnn2)c(-c2nc(-c3ccc4[nH]ncc4c3)cs2)c1	7.94	1540	5	–	–	–	–
c1ccc(-n2cnnn2)c(-c2cc(-c3ccc4[nH]ncc4c3)on2)c1	3.3	2000	1.65	–	–	–	–
Clc1cccc(-n2cnnn2)c1-c1nc(-c2ccc3[nH]ncc3c2)cs1	21.6	1680	12.8	–	–	–	–
Nc1n[nH]c2ccc(NC(=O)c3c(Cl)cccc3-n3cnnn3)cc12	–	76600	–	–	–	–	10
Nc1n[nH]c2ccc(-c3cnc(-c4ccccc4-n4cnnn4)s3)cc12	9.29	3250	2.85	–	–	–	–
Nc1n[nH]c2ccc(NC(=O)c3ccccc3-n3cnnn3)cc12	33.9	6340	5.3	–	–	–	–
O=C(Nc1ccc2[nH]ncc2c1)c1ccccc1Cn1cnnn1	9.67	3540	2.7	–	–	–	–
O=C(Nc1ccc2[nH]ncc2c1)c1ccccc1	–	–	–	17	–	–	–
Nc1n[nH]c2ccc(NC(=O)c3cc(Cl)ccc3Cl)cc12	0.151	23	6.57	–	–	–	–
Nc1n[nH]c2ccc(NC(=O)c3cccc(Cl)c3Cl)cc12	1.51	411	3.67	–	–	–	–
O=C(Nc1ccc2[nH]ncc2c1)c1cccc(-n2cnnn2)c1	0.764	718	1	–	–	–	–
Nc1n[nH]c2ccc(NC(=O)c3ccccc3)cc12	10.5	2780	3.78	–	–	–	–
Nc1n[nH]c2ccc(C(=O)Nc3cc(Cl)ccc3Cl)cc12	0.414	38	11	–	–	–	–
Nc1n[nH]c2ccc(C(=O)Nc3ccccc3)cc12	10.8	3230	3.78	–	–	–	–
CCNc1ccccc1C(=O)Nc1ccc2[nH]nc(N)c2c1	22	1970	11	–	–	–	–
c1ccc(-n2cnnn2)c(-c2cn(-c3ccc4[nH]ncc4c3)nn2)c1	8.8	9530	0.9	–	–	–	–
Nc1n[nH]c2ccc(NC(=O)c3ccccc3Cl)cc12	1.82	101	18	–	–	–	–
